Results reported in PMC4667193 (Scientific Reports, 2015).

Tests used:
[1] = system: rat primary hippocampal cell culture; assay: MTT viability assay, AEME-induced neurotoxicity; assay type: cell-based; settings: 10^−3 M AEME, 24 hours, % of control
Method: Neuronal viability was evaluated in the hippocampal cell culture using the 3-(4,5-dimethylthiazol-2-yl)-2,5-diphenyltetrazolium bromide (MTT; Sigma) reduction assay, with some modification. Briefly, after 24 hours of incubation with 10^−3 M AEME in the absence and in the presence of 10 nM pirenzepine hydrochloride (M1 selective antagonist; Sigma), 10 nM p-F-HHSiD (M3 selective antagonist; Sigma) and the specific inhibitor of different isoforms of PLC U73122 (10 nM)[55] (Sigma), all the medium was removed, and 100 μL of MTT solution, containing 5 mg/mL MTT in PBS and neurobasal medium without phenol red (1:9, v/v) were added. After 3 hours of incubation with MTT at 37 °C in a humidified atmosphere of 5% CO2, the MTT solution was removed and 200 μL of dimethyl sulfoxide was added to each well. After 30 minutes of shaking, the absorbance was measured at 570 nm in a multiwell plate reader (BioTek Synergy H1 Hybrid Reader). Potassium chloride (250 mM) was used as a positive control of neuronal death. Muscarinic antagonists, as well as the iPLC, were added 30 minutes prior to incubation with AEME. The antagonist concentration used was near the pKi[25][56]. A control containing 0.002% DMSO was used, since the iPLC stock solution was previously dissolved in this solvent. The assay was performed in quadruplicate, and the results were expressed as a percentage of the control value.

Rat M1 mAChR = molecular target: T1, Rat M1 mAChR (Rattus norvegicus, UniProt P08482); assay: calcium mobilization assay in CHO cells; assay type: cell-based
T1 construct: host or cells: CHO (CHO-K1) cells
T1 sequence (P08482 1-460): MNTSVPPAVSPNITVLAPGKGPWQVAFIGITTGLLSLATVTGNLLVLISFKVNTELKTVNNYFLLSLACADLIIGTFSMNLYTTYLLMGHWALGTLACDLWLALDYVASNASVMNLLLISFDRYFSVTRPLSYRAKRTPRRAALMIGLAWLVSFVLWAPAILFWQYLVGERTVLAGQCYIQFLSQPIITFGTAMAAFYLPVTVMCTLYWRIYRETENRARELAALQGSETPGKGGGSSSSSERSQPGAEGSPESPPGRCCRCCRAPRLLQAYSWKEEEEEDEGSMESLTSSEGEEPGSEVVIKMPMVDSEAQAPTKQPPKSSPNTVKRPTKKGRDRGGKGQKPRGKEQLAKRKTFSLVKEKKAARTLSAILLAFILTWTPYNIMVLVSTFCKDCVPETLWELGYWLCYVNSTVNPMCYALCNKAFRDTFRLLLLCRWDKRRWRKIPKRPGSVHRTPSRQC
Method: (§1) CHO cells expressing rM1, rM3 and rM5 were plated at 4 × 10^4 cells per well, whereas rM2 and rM4 were plated at 6 × 10^4 cells per well, in standard growth media (as described previously under “cell culture”) in 96-well plates 24 hours before assay and were incubated overnight at 37 °C in 5% CO2. […] Cells were incubated for 45 minutes (37 °C, 5% CO2) for dye loading. Fluo4-AM dye was removed, cells were washed and replaced with 40 μL of calcium assay buffer. AEME concentration-response curves were determined in single-add experiments. […] All compounds were dissolved in dimethyl sulfoxide (DMSO) and then in calcium assay buffer to obtain a final DMSO concentration of 0.3%. […] These values were fit using GraphPad Prism version 5.0 to determine EC50 values and Schild slope and pA2 in the Schild analyses.

Rat M3 mAChR = molecular target: T2, Rat M3 mAChR (Rattus norvegicus, UniProt P08483); assay: calcium mobilization assay in CHO cells; assay type: cell-based
T2 construct: host or cells: CHO (CHO-K1) cells
Method: as §1

[2] = system: rat primary hippocampal cell culture; assay: DNA fragmentation (propidium iodide, flow cytometry); assay type: cell-based; settings: for cells with fragmented DNA: 24 hours, control 28.6%
Method: DNA fragmentation was assessed using propidium iodide following the method described by Lima et al.[47]. Hippocampal cells were incubated with 10^−4 or 10^−3 M AEME for 12 and 24 hours. Briefly, exposed cells were removed from the culture plate and centrifuged (500 g for 5 minutes) and lysed with a fragmentation buffer ([…] propidium iodide, 0.1% sodium citrate, and 0.1% Triton-X) for 2 hours at room temperature in the dark. DNA fragmentation was analyzed in a flow cytometry (FACSCalibur, Becton Dickinson, CA) using the FL2-A channel (λexcitation = 585 nm and λemission = 642 nm) and […] cells were evaluated per experiment.

[3] = system: rat primary hippocampal cell culture; assay: total [^3H]inositol phosphate accumulation in hippocampal cells; assay type: cell-based; settings: 10^−8 to 10^−3 M
Method: Hippocampal cells (1 × 10^6 cells/well) were allowed to equilibrate for 10 minutes with a nutrient solution of the following composition (mM): NaCl 157.00; KCl 5.60; CaCl2 0.27; MgCl2 3.00; NaHCO3 1.80; glucose 5.50 (pH 7.0–7.2) at 37 °C under constant shaking. Cells were incubated with 5 μCi of myo[^3H]inositol (specific activity 18.0 Ci/mmol) for 80 minutes, and lithium chloride (10 mM) for additional 30 minutes. Afterwards, the cells were incubated in the absence (basal level) and in the presence of carbachol (positive control) and AEME (10^−8 to 10^−3 M) for 10 minutes. Cells were removed from the plate using a 0.1 M NaOH solution and washed three times with nutrient solution, transferred to 2 mL of methanol:chloroform (2:1 v-v) at 4 °C and homogenized with a Ultra-Turrax T25 homogenizer at 9500 rpm. Chloroform (0.62 mL) and H2O (0.93 mL) were added to the homogenate, and the solution was centrifuged for 5 minutes at 1,000× g to separate aqueous and organic phases. Total [^3H]inositol phosphate was measured as previously described by Ascoli et al.[45] with slight modification. The aqueous layer was neutralized with 0.1 M HCl and then mixed with 1 mL anion-exchange resin (Dowex AG-X8, formate form, 200–400 mesh), allowed to equilibrate for 30 minutes at room temperature, under agitation, and centrifugated at 1,000× g, for 5 minutes at 4 °C. The resin was then washed sequentially, with 10 mM myo-inositol (2 mL) and 5 mM sodium tetraborate/60 mM sodium formate (2 mL). The resin was incubated for 30 minutes at room temperature with 2 mL of 0.1 M formic acid/1 M ammonium formate). The total [^3H]inositol phosphate was eluted and placed in scintillation vials containing OptiPhase HiSafe 3. The amount of radioactivity was determined in scintillation β-counter (LS 6500 IC, Beckman). Total [^3H]inositol phosphate was expressed as percentage above basal level.

[4] = molecular target: muscarinic cholinergic receptors; settings: [^3H]QNB, rat hippocampus; cited from earlier work

T2 sequence (P08483 whole entry): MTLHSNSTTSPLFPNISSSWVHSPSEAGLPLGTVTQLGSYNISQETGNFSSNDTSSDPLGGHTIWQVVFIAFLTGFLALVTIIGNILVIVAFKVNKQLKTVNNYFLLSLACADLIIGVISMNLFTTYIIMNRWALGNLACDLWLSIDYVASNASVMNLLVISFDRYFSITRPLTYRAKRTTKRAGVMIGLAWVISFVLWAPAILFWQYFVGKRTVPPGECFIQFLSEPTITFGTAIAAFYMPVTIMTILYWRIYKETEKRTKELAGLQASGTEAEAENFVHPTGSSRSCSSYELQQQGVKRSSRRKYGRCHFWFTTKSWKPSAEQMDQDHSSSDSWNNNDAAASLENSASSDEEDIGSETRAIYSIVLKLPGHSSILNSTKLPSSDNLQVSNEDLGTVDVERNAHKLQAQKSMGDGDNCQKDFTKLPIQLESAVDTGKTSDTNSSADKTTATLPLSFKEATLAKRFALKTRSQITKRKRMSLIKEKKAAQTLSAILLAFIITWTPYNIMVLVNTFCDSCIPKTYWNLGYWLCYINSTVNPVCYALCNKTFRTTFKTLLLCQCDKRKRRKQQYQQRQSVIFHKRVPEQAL

COC(=O)C1=CC[C@@H]2CC[C@H]1N2C [AEME, anhydroecgonine methyl ester]
viable cells [1]: 67.2% | mechanism of action (Rat M1 mAChR; rat M1): partial agonist-activity | % of the maximum acetylcholine response (Rat M1 mAChR; rat M1, agonist mode): 38.3% | EC50 (Rat M1 mAChR; rat M1, agonist mode (single-add)): > 100 µM | mechanism of action (Rat M3 mAChR; rat M3): partial agonist-activity | % of the maximum acetylcholine response (Rat M3 mAChR; rat M3, agonist mode): 27.2% | EC50 (Rat M3 mAChR; rat M3, agonist mode (single-add)): > 100 µM | cells with fragmented DNA ([2]; 10^−3 M): 44.1% | DNA fragmentation ([2]; 10^−4 or 10^−3 M, 12 hours): same pattern of DNA fragmentation as the control group | cells with fragmented DNA ([2]; lower AEME concentration (10^−4 M)): 32.1% | effect on total [^3H]inositol phosphate [3]: concentration-dependent increase | concentration giving maximum inositol phosphate accumulation ([3]; 10 minutes): 10^−5 M | pKi [4]: 4.15 ± 0.15
